Assay results taken from paper PMC8632988, “Inhibition of SYK and cSrc kinases can protect bone and cartilage in preclinical models of osteoarthritis and rheumatoid arthritis” (Scientific Reports, 2021).
Read-outs that look alike come from different tables or passages of the source.

Tests used:
Experiment in all cases: Kinase selectivity profile assay
Format in all cases: biochemical
[1] = target: T1, PAK5 (Homo sapiens, UniProt Q9P286); conditions: 500 nM; relative to DMSO; read-out: Residual enzymatic activity
T1 construct: purchased Reaction Biology Corporation
T1 sequence (Q9P286 whole entry): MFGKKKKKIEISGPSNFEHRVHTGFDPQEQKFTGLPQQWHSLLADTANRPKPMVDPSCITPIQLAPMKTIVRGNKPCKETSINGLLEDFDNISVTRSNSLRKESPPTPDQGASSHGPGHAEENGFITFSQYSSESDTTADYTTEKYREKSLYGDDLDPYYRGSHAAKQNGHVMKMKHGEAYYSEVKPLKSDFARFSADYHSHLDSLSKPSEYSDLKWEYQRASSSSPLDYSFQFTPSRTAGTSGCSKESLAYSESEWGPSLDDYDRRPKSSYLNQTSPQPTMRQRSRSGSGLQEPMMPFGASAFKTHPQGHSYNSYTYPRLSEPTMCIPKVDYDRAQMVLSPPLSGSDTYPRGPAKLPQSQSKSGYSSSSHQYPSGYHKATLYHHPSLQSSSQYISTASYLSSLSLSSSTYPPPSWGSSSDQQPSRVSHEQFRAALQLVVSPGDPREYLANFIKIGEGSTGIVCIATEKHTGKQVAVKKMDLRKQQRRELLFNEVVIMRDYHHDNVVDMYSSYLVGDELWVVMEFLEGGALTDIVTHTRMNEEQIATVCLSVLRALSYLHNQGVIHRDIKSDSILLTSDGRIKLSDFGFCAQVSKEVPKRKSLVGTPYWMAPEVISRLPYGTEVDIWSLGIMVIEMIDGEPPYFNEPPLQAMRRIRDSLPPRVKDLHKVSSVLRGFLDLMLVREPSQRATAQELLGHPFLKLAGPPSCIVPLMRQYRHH
Outline: (§1)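 Radiometric kinase assay run by a standard protocol. Unbound phosphate was removed by washing filters in phosphoric acid, and product radioactivity gave percent remaining kinase activity versus DMSO vehicle reactions. Run in duplicate.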

[2] = target: T2, TBK1 (Homo sapiens, UniProt Q9UHD2); conditions: 500 nM; relative to DMSO; read-out: Residual enzymatic activity
T2 construct: purchased Reaction Biology Corporation
Outline: as §1

[3] = target: T3, EPHB4 (Homo sapiens, UniProt P54760); conditions: 500 nM, relative to DMSO; for remaining activity at 0.5 µM: read-out: Residual enzymatic activity
T3 construct: purchased Reaction Biology Corporation
T3 sequence (P54760 16-987): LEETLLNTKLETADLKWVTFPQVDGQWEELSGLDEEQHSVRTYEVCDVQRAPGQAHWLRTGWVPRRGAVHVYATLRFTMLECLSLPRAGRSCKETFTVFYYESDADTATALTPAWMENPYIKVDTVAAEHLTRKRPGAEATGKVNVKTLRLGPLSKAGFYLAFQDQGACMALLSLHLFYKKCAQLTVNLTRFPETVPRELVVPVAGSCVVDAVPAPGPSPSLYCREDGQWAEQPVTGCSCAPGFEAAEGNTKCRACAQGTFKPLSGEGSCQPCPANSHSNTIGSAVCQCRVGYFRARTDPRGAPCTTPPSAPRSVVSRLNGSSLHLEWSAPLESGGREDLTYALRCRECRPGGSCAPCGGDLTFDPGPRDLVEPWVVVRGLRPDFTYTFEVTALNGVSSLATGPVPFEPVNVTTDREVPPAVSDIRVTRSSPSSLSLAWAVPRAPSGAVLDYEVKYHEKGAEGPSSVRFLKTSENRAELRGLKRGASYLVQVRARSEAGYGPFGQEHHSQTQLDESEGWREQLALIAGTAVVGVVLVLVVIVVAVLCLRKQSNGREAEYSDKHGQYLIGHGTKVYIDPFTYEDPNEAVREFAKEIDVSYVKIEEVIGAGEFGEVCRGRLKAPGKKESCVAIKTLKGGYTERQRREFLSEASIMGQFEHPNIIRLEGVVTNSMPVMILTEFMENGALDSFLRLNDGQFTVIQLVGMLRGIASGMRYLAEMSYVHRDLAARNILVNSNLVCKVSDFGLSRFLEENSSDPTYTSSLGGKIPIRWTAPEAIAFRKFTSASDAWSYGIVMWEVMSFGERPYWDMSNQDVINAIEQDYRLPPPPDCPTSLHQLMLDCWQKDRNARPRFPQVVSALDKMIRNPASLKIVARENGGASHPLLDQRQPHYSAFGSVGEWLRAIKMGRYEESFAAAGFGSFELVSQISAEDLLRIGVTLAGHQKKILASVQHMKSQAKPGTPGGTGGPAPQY
Outline: as §1

[4] = target: T4, ZAK/MLTK (Homo sapiens, UniProt Q9NYL2); conditions: 500 nM; relative to DMSO; read-out: Residual enzymatic activity
T4 construct: purchased Reaction Biology Corporation
Outline: as §1

[5] = target: T5, ERK1 (Homo sapiens, UniProt P27361); conditions: 500 nM; relative to DMSO; read-out: Residual enzymatic activity
T5 construct: purchased Reaction Biology Corporation
Outline: as §1

[6] = target: T6, PASK (Homo sapiens, UniProt Q96RG2); conditions: 500 nM; relative to DMSO; read-out: Residual enzymatic activity
T6 construct: purchased Reaction Biology Corporation
Outline: as §1

[7] = target: T7, IRR/INSRR (Homo sapiens, UniProt P14616); conditions: 500 nM; relative to DMSO; read-out: Residual enzymatic activity
T7 construct: purchased Reaction Biology Corporation
Outline: as §1

[8] = target: T8, SRPK2 (Homo sapiens, UniProt P78362); conditions: 500 nM; relative to DMSO; read-out: Residual enzymatic activity
T8 construct: purchased Reaction Biology Corporation
Outline: as §1

[9] = target: T9, PKD2/PRKD2 (Homo sapiens, UniProt Q9BZL6); conditions: 500 nM; relative to DMSO; read-out: Residual enzymatic activity
T9 construct: purchased Reaction Biology Corporation
Outline: as §1

[10] = target: T10, PDGFRa (Homo sapiens, UniProt P16234); conditions: for remaining activity at 0.5 µM: 500 nM, relative to DMSO, read-out: Residual enzymatic activity
T10 construct: purchased Reaction Biology Corporation (Malvern, PA, USA)
T10 sequence (P16234 24-1089): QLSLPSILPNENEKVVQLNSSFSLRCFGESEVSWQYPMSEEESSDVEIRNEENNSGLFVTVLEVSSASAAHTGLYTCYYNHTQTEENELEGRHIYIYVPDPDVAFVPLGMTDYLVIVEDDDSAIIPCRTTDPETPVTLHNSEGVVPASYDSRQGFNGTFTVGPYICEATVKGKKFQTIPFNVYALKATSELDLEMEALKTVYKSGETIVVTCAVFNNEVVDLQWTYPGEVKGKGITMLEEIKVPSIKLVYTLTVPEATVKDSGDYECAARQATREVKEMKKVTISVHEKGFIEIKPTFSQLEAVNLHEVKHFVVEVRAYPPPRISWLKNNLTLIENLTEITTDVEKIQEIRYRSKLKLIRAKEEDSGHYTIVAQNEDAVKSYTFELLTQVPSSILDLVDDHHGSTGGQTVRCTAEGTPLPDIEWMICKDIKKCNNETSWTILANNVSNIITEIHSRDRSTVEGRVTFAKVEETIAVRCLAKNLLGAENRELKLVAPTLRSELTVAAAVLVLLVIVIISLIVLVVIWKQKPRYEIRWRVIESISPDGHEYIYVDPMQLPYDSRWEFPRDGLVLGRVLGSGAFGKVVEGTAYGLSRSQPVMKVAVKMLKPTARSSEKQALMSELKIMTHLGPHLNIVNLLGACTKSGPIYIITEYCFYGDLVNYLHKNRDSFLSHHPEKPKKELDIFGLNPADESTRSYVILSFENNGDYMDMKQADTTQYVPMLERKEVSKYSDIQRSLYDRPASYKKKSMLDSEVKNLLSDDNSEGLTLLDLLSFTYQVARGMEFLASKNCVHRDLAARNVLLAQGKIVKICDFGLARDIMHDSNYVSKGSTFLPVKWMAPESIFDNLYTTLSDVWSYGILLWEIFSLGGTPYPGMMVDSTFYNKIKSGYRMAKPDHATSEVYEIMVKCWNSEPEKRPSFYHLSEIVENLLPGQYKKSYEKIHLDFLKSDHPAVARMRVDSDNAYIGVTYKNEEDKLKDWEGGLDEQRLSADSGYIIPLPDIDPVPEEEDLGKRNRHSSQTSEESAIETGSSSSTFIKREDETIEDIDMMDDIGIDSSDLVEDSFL
Outline: as §1

[11] = target: T11, c-Kit (Homo sapiens, UniProt P10721); conditions: 500 nM, relative to DMSO; for remaining activity at 0.5 µM: read-out: Residual enzymatic activity
T11 construct: purchased Reaction Biology Corporation
T11 sequence (P10721 26-976): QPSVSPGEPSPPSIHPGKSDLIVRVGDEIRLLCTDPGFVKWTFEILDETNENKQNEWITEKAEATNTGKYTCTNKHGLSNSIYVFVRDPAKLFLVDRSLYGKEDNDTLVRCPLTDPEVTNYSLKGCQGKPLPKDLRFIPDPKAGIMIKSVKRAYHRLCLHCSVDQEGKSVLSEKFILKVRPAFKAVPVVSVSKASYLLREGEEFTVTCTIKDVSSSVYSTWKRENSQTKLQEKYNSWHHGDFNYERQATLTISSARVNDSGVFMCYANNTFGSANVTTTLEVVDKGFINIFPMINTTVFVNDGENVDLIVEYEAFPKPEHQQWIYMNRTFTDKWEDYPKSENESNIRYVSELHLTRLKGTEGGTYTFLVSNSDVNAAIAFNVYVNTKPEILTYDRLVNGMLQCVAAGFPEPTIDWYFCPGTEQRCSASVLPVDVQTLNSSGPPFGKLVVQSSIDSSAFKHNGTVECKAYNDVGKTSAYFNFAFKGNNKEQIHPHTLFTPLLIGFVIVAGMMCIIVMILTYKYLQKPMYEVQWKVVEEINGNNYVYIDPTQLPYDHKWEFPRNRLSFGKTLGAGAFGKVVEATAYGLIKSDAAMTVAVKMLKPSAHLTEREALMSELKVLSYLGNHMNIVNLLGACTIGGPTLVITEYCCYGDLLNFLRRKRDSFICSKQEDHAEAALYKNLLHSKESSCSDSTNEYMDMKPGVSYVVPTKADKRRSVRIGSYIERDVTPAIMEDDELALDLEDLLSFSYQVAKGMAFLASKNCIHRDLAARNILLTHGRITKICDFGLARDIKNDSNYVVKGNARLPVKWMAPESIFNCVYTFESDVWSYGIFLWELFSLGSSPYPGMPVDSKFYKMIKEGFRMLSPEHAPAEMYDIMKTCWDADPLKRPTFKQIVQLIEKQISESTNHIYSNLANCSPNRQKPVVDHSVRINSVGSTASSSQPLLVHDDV
Outline: as §1

[12] = target: T12, SLK/STK2 (Homo sapiens, UniProt Q9H2G2); conditions: 500 nM; relative to DMSO; read-out: Residual enzymatic activity
T12 construct: purchased Reaction Biology Corporation
Outline: as §1

[13] = target: T13, CK1g2 (Homo sapiens, UniProt P78368); conditions: 500 nM; relative to DMSO; read-out: Residual enzymatic activity
T13 construct: purchased Reaction Biology Corporation
Outline: as §1

[14] = target: T14, CDK5/p35 (Homo sapiens, UniProt Q00535); conditions: 500 nM; relative to DMSO; read-out: Residual enzymatic activity
T14 construct: purchased Reaction Biology Corporation
Outline: as §1

[15] = target: T15, GRK2 (Homo sapiens, UniProt P25098); conditions: 500 nM; relative to DMSO; read-out: Residual enzymatic activity
T15 construct: purchased Reaction Biology Corporation
Outline: as §1

[16] = target: T16, MEK2 (Homo sapiens, UniProt P36507); conditions: 500 nM; relative to DMSO; read-out: Residual enzymatic activity
T16 construct: purchased Reaction Biology Corporation
Outline: as §1

[17] = target: T17, SGK1 (Homo sapiens, UniProt O00141); conditions: 500 nM; relative to DMSO; read-out: Residual enzymatic activity
T17 construct: purchased Reaction Biology Corporation
T17 sequence (O00141 whole entry): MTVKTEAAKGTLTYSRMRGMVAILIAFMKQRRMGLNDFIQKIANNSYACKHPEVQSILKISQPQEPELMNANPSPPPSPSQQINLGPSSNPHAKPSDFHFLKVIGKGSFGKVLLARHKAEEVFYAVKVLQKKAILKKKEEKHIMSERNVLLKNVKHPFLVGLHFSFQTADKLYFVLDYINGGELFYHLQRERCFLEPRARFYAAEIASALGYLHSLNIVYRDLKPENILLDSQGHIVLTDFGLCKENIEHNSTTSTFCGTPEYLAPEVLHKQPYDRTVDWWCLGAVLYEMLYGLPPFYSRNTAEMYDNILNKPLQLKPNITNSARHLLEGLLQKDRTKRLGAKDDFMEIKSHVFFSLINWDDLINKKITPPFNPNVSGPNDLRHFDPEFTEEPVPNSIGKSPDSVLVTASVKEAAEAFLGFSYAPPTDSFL
Outline: as §1

[18] = target: T18, MRCKa/CDC42BPA (Homo sapiens, UniProt Q5VT25); conditions: read-out: Residual enzymatic activity
T18 construct: purchased Reaction Biology Corporation
Outline: as §1

[19] = target: T19, PKA (Homo sapiens, UniProt P17612); conditions: 500 nM, relative to DMSO; for remaining activity at 0.5 µM: read-out: Residual enzymatic activity
T19 construct: purchased Reaction Biology Corporation
Outline: as §1

[20] = target: T20, PKN3/PRK3 (Homo sapiens, UniProt Q6P5Z2); conditions: 500 nM; relative to DMSO; read-out: Residual enzymatic activity
T20 construct: purchased Reaction Biology Corporation
T20 sequence (Q6P5Z2 whole entry): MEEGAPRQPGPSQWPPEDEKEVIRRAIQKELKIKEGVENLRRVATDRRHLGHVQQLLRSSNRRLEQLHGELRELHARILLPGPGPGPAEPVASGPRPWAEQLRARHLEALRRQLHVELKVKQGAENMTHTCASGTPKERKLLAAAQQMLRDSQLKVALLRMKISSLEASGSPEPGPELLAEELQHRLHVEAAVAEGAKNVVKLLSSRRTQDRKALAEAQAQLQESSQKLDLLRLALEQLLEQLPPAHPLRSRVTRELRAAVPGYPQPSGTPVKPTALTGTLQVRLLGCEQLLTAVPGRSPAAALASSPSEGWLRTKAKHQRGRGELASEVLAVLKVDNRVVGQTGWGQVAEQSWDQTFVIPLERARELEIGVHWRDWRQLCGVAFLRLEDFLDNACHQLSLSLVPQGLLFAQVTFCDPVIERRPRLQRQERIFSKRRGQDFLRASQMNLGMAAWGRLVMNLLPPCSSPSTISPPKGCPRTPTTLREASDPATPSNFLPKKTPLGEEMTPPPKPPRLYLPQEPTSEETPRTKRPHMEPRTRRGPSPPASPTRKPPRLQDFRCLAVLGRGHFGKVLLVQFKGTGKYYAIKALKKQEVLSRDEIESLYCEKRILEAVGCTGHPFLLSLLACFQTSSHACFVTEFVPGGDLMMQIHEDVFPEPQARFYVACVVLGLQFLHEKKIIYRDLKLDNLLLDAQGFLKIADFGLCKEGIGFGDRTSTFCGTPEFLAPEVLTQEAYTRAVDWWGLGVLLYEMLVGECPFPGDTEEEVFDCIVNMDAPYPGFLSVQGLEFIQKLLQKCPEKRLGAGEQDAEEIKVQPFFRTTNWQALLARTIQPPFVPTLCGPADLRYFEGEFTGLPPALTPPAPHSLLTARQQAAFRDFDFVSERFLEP
Outline: as §1

[21] = target: T21, BRK (Homo sapiens, UniProt Q13882); conditions: 500 nM, relative to DMSO; for remaining activity at 0.5 µM: read-out: Residual enzymatic activity
T21 construct: purchased Reaction Biology Corporation
T21 sequence (Q13882 whole entry): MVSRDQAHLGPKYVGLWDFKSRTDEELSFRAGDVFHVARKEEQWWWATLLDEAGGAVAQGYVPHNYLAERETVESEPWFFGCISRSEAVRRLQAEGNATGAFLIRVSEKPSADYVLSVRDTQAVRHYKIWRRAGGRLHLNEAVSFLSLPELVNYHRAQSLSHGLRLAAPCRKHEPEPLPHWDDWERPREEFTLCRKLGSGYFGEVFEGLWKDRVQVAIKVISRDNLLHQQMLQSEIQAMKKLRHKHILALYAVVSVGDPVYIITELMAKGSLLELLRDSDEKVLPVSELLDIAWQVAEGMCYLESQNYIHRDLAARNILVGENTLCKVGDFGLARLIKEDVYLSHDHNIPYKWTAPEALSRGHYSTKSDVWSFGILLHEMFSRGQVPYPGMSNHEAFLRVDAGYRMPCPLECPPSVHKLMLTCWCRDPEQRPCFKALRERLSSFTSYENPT
Outline: as §1

[22] = target: T22, PKG1a (Homo sapiens, UniProt Q13976); conditions: 500 nM; relative to DMSO; read-out: Residual enzymatic activity
T22 construct: purchased Reaction Biology Corporation
Outline: as §1

[23] = target: T23, GRK6 (Homo sapiens, UniProt P43250); conditions: 500 nM; relative to DMSO; read-out: Residual enzymatic activity
T23 construct: purchased Reaction Biology Corporation
Outline: as §1

[24] = target: T24, PKG1b (Homo sapiens, UniProt Q13976); conditions: 500 nM; relative to DMSO; read-out: Residual enzymatic activity
T24 construct: purchased Reaction Biology Corporation
Outline: as §1

[25] = target: T25, CK1g3 (Homo sapiens, UniProt Q9Y6M4); conditions: 500 nM; relative to DMSO; read-out: Residual enzymatic activity
T25 construct: purchased Reaction Biology Corporation
Outline: as §1

[26] = target: T26, YES/YES1 (Homo sapiens, UniProt P07947); conditions: for remaining activity at 0.5 µM: 500 nM, relative to DMSO, read-out: Residual enzymatic activity
T26 construct: purchased Reaction Biology Corporation (Malvern, PA, USA)
T26 sequence (P07947 whole entry): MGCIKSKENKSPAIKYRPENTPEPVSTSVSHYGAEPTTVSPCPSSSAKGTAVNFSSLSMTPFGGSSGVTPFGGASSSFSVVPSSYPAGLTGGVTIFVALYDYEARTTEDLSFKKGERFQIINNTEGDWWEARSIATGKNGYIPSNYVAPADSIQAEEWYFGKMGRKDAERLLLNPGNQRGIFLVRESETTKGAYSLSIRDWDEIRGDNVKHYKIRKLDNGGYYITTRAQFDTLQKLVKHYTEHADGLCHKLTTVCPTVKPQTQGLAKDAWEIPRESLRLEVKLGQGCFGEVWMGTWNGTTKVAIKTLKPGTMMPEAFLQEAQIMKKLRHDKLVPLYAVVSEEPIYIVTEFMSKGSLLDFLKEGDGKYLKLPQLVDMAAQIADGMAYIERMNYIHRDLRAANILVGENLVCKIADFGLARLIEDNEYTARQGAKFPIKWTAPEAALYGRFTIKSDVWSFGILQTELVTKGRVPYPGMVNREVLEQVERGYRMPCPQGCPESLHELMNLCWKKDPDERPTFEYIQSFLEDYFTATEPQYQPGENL
Outline: as §1

[27] = target: T27, MST3/STK24 (Homo sapiens, UniProt Q9Y6E0); conditions: 500 nM; relative to DMSO; read-out: Residual enzymatic activity
T27 construct: purchased Reaction Biology Corporation
Outline: as §1

[28] = 10-dose mode, threefold serial dilution from 10 μM

Row | Structure (SMILES) | remaining activity at 0.5 µM [1] | remaining activity at 0.5 µM [2] | remaining activity at 0.5 µM [3] | remaining activity at 0.5 µM [4] | remaining activity at 0.5 µM [5] | remaining activity at 0.5 µM [6] | remaining activity at 0.5 µM [7] | remaining activity at 0.5 µM [8] | remaining activity at 0.5 µM [9] | remaining activity at 0.5 µM [10] | remaining activity at 0.5 µM [11] | remaining activity at 0.5 µM [12] | remaining activity at 0.5 µM [13] | remaining activity at 0.5 µM [14] | remaining activity at 0.5 µM [15] | remaining activity at 0.5 µM [16] | remaining activity at 0.5 µM [17] | remaining activity at 0.5 µM [19] | remaining activity at 0.5 µM [20] | remaining activity at 0.5 µM [21] | other results
1 | COc1cc(Nc2ncnc(Nc3cc4c(cn3)NC(=O)C(C)(C)O4)n2)cc(OC)c1OC [MT-SYK-03] | 98.5% | 66.8% | > 54% | 92.9% | 119% | 102% | 89% | 104% | 102% | 46.4% | > 54% | 81% | 97.2% | 101% | 101% | 97.2% | 108% | 96.4% | 90% | > 54% | Residual enzymatic activity [3]: 64.6%; IC50 [10, 28]: 0.0359 µM; Residual enzymatic activity [11]: 69.2%; remaining activity at 0.5 µM ([18]; 500 nM, relative to DMSO): 102%; Residual enzymatic activity [19]: did not inhibit any; Residual enzymatic activity [21]: 54.2%; remaining activity at 0.5 µM [22]: 94.8%; remaining activity at 0.5 µM [23]: 100%; remaining activity at 0.5 µM [24]: 93.9%; remaining activity at 0.5 µM [25]: 72.2%; remaining activity at 0.5 µM [26]: 11.6%; IC50 [26, 28]: 0.0035 µM; inhibition at 0.5 µM ([26]; read-out: Inhibition at 500 nM): > 90%; remaining activity at 0.5 µM [27]: 108%
2 | COc1cc(Nc2ncc(F)c(Nc3ccc4c(n3)NC(=O)C(C)(C)O4)n2)cc(OC)c1OC [R406, reference compound] | 49% | 13.9% | 51.2% | 85.4% | 97.4% | 106% | 73.6% | 104% | 75.2% | 10.5% | 37.1% | 31.4% | 101% | 82.9% | 97.2% | 83.5% | 109% | 50.8% | 40.8% | 27.6% | remaining activity at 0.5 µM [18]: 104%; remaining activity at 0.5 µM [22]: 85.4%; remaining activity at 0.5 µM [23]: 92.7%; remaining activity at 0.5 µM [24]: 98.6%; remaining activity at 0.5 µM [25]: 79.6%; remaining activity at 0.5 µM [26]: 10.1%; remaining activity at 0.5 µM [27]: 95.6%
